# Measured values taken from paper PMC7082314 (Frontiers in Cellular and Infection Microbiology, 2020).
# Target: BfpR-His6 (Francisella tularensis, UniProt A0Q7V5)
# Conditions: 5 uM protein (printed 'Five micrometers'), 2X SYPRO Orange; heated to 95 °C
# BfpR-His6, sequence (A0Q7V5 1-229): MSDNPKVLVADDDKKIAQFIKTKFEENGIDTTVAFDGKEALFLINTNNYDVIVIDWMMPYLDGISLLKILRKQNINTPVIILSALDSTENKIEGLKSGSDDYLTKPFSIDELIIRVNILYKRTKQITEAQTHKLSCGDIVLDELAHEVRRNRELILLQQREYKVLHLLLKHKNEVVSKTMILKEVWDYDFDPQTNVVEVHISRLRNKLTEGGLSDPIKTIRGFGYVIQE
structure (smiles),measurement,value
"COc1ccc(O)c2ccccc12 [walrycin A, 4-methoxy-1-naphthol]",thermal shift,a protein population not seen in the presence of the control compounds appears
